d = 2'-deoxy (DNA); r = 2'-OH (RNA)
Columns and labels:
[1] = system: NFKBIZ mRNA; test: NFKBIZ mRNA expression by RT-qPCR in LPS-stimulated HCECs; type: cell-based, human; details: LPS-stimulated (100 ng/mL) HCECs, 10 μM ASO or siRNA, without transfection reagent, 6 h + 48 h
Description: HCECs were inoculated in a 6-well plate at a density of 1×10^5 cells/well and cultured until adherence. The cells were then stimulated with 100 ng/mL lipopolysaccharide (LPS) overnight. After removing the supernatant, 1 mL of Opti-MEM medium containing ASONFKBIZ-h, ASONFKBIZ-h+Lipofectamine2000 (Lipo2000), and CsA-ASONFKBIZ-h (all containing 10 µM ASO) were added, respectively. Cells without any treatment were used as a blank reference (Mock). After incubation at 37° C. for 6 h, the cells were transferred into DMEM medium and incubated for another 48 h. The cells were collected and RNA was extracted for RT-qPCR to analyze the expression level of the NFKBIZ mRNA in HCECs, and experimental results were shown in FIG. 9. The expression level of NFKBIZ mRNA in HCECs after LPS stimulation was about 1.3 times that of normal cells. […] After adding CsA-ASONFKBIZ-h for co-incubation, the expression of NFKBIZ mRNA was reduced to about 0.8 times that of normal cells.
(§1) HCECs were inoculated in a 6-well plate at a density of 1×10^5 cells/well and cultured until adherence. The cells were then stimulated with 100 ng/mL LPS overnight. After removing the supernatant, 1 mL of Opti-MEM medium containing ASONFKBIZ-h+Lipo2000 complex and 2CsA-ASONFKBIZ-h nanomicelles (all containing 10 µM ASO) were added, respectively. After incubation at 37° C. for 6 h, the cells were transferred into DMEM medium and incubated for another 48 h. The cells were collected and RNA was extracted for RT-qPCR to analyze the expression level of the NFKBIZ mRNA in HCECs, and experimental results were shown in FIG. 12.
as §1, with “ng/ml” for “ng/mL”, “3CsA-ASONFKBIZ-h” for “2CsA-ASONFKBIZ-h”, “15.” for “12.”
HCECs were inoculated in a 6-well plate at a density of 1×10^5 cells/well and cultured until adherence. The cells were then stimulated with 100 ng/mL LPS overnight. 1 mL of Opti-MEM medium containing ASONFKBIZ-h+Lipo2000 complex and CsA3-ASONFKBIZ-h nanomicelles (all containing 10 µM ASO) were added, respectively. After incubation at […]. 37° C. for 6 h, the cells were transferred into DMEM medium and incubated for another 48 h. After collected and RNA was extracted for RT-qPCR to evaluate the expression level of NFKBIZ mRNA in HCECs, and the experimental results were shown in FIG. 23.
HCECs were inoculated in a 6-well plate at a density of 1×10^5 cells/well and cultured overnight until adherence. The cells were then stimulated with 100 ng/ml LPS for 12 h. After removing the supernatant, 1 mL of Opti-MEM medium containing siRNANFKBIZ-h+Lipo2000 complex and nCsA-siRNANFKBIZ-h (n=1, 2, 3) conjugates and nanomicelles (all containing 10 μM siRNA) were added, respectively. After incubation at 37° C. for 6 h, the cells were transferred into DMEM medium and incubated for another 48 h. The cells were collected and RNA was extracted for RT-qPCR to evaluate the expression of NFKBIZ mRNA in HCECs, and experimental results were shown in FIG. 27. […]

[2] = system: Human corneal epithelial cells (HCECs); test: Cellular uptake of FITC-labelled conjugate by flow cytometry; type: cell-based
Description: Human corneal epithelial cells (HCECs) were inoculated at a density of 5×10^4 cells/well in a 12-well plate and cultured overnight. After the medium was removed, 0.5 mL of fresh medium containing 10 μM or 100 μM CsA-ASONFKBIZ-h conjugate with FITC fluorescence was added and incubated with HCECs for 6 h, while a well plate without conjugate was used as a blank control (Mock group). After the incubation, the supernatant medium was discarded, and then the cells were digested with trypsin and washed 2 to 3 times with phosphate-buffered saline (PBS, pH=7.2). After the cells were collected, flow cytometric analysis was conducted using a flow cytometer, and experimental results were shown in FIGS. 8A-8B.

**Q.** Which “expression of NFKBIZ mRNA relative to normal cells” value [1] does the source give for “CsA-siRNANFKBIZ-h: one CsA coupled to sense strand of siRNA targeting human NFKBIZ (SEQ ID NO: 9/10) (sense GCCCGAUUCGUUGUCUGAUTT; antisense AUCAGACAACGAAUCGGGCTT; sugars from the 5' end r19 d2, backbone not given here; DBCO clicked to azide-modified cyclosporin A, further chemistry not fully specified)” here?
**A.** level before LPS stimulation

**Q.** With “3CsA-ASONFKBIZ-h: three CsA molecules coupled to 3DBCO ASO targeting human NFKBIZ (SEQ ID 5), self-assembled (ATCAGACAACGAATCGGGCNTNTT; three CsA via DBCO click; modified_base 20 OTHER; n is t base modified with DBCO moiety; modified_base 22 OTHER)” as the substance, how does the “expression of NFKBIZ mRNA relative to normal cells” value [1] read?
**A.** about 0.75 times that of normal cells

**Q.** For “2CsA-ASONFKBIZ-h: two CsA molecules coupled to 2DBCO ASO targeting human NFKBIZ (SEQ ID 3), self-assembled (ATCAGACAACGAATCGGGCNTT; two CsA via DBCO click; modified_base 20 OTHER; n is t base modified with DBCO moiety)”, which “expression of NFKBIZ mRNA relative to normal cells” value [1] is on record?
**A.** about 0.8 times that of normal cells

**Q.** Which “expression of NFKBIZ mRNA relative to normal cells” value [1] does the source give for “CsA-ASONFKBIZ-h: single cyclosporin A (CsA-N3) click-coupled to 3′-DBCO ASO targeting human NFKBIZ gene (SEQ ID NO: 1) (ATCAGACAACGAATCGGGC; 3'-DBCO ASO click-conjugated to one cyclosporin A, sugar and linkages not given here, further chemistry not given here)” here?
**A.** about 0.8 times that of normal cells

**Q.** And the cellular uptake ([2]; 10 μM or 100 μM FITC-labelled conjugate, 6 h)?
**A.** effectively taken up by cells

**Q.** What about the “average fluorescence intensity of cells, 100 UM versus 10 μM conjugate” value ([2]; FITC-labelled conjugate, 6 h incubation, flow cytometry) of the same substance?
**A.** approximately 10 times

Source: patent US20250367302A1, “SMALL MOLECULE DRUG-OLIGONUCLEOTIDE CONJUGATE AND USE THEREOF” (SHANGHAI JIAO TONG UNIVERSITY, priority 2022, published 2025)
